This is an account of results in patent US6849653B2, “Substituted pyrazolyl benzenesulfamide compounds for the treatment of inflammation” (Pharmacia Corporation, priority 2001, dated 2005).

Each structure is given as a SMILES string. Where only a bound is given, the exact number is not on record here.

One test has as its target T1, IKK2 (IKKβ), rhIKK2 homodimer (Homo sapiens, UniProt O14920).
T1 construct: made in house; host or cells: insect cells (baculovirus; SF9)
T1 sequence (O14920 1-756): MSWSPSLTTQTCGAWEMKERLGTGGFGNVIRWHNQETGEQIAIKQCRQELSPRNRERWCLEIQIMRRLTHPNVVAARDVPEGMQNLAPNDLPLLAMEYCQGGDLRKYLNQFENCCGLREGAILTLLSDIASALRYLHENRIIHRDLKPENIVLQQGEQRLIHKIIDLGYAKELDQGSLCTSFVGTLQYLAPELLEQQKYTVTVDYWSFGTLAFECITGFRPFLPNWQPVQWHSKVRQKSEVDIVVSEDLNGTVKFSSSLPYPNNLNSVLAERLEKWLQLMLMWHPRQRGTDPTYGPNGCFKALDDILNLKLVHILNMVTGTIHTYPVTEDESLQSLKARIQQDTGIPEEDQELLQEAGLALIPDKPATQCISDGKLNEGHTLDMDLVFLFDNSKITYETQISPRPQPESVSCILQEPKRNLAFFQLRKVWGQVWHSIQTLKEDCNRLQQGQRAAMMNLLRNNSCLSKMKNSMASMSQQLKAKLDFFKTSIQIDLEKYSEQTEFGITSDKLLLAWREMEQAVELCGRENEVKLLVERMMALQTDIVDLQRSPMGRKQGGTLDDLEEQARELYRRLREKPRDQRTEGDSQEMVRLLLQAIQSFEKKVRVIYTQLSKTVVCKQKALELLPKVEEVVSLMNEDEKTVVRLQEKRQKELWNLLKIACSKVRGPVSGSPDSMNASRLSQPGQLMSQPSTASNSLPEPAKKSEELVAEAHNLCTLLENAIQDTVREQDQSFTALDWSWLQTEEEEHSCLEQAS
Briefly: IKKβ (IKK2) Resin Enzyme Assay. To be noted: Table 2; values given as bins; read-out: IKK2 Resin IC 50. Type of test: biochemical. The text has this: (§1) cDNAs of human IKK1 and IKK2 were amplified by reverse transcriptase-polymerase chain reaction from human placental RNA (Clonetech). hIKK1 was subcloned into pFastBac HTa (Life Technologies) and expressed as N-terminal His6-tagged fusion protein. The hIKK2 cDNA was amplified using a reverse oligonucleotide primer which incorporated the peptide sequence for a FLAG-epitope tag at the C-terminus of the IKK2 coding region (DYKDDDDKD). The hIKK2:FLAG cDNA was subcloned into the baculovirus vector pFastBac. The rhIKK2 ([…]) mutant was constructed in the same vector used for wild type rhIKK2 using a QuikChange™ mutagenesis kit (Stratagene). Viral stocks of each construct were used to infect insect cells grown in 40L suspension culture. […] Cell lysates were stored at −80° C. until purification of the recombinant proteins was undertaken as described below.
Isolation of rhIKK2 Homodimer
A 10 liter culture of baculovirus-expressing IKK2 tagged with FLAG peptide was centrifuged and the cell pellet (MOI=0.1 and I=72 hrs) was re-suspended in buffer A. These cells were microfluidized, and centrifuged at 100,000×g for 45 min. Supernatant was passed over a G-25 column equilibrated with Buffer A. Protein peak was collected and incubated with anti-FLAG affinity resin on a rotator overnight in buffer B. The resin was washed in batch with 10-15 bed volumes of buffer C. Washed resin was poured into a column and rhIKK2 homodimer was eluted using 5 bed volumes of buffer B containing FLAG peptide. 5 mM DTT, 0.1% NP-40 and BSA (concentrated to 0.1% in final amount) was added to the eluted enzyme before concentrating in using an Amicon membrane with a molecular weight cut-off of 30 kDa. Enzyme was aliquoted and stored at −80° C.
IKKβ kinase activity was measured using a biotinylated IκBα peptide (Gly-Leu-Lys-Lys-Glu-Arg-Leu-Leu-Asp-Asp-Arg-His-Asp-Ser32-Gly-Leu-Asp-Ser36-Met-Lys-Asp-Glu-Glu) (American Peptide Co.). […] contained 5 μM biotinylated IκBα peptide, 0.1 μCi/reaction [γ-^33P] ATP (Amersham) (about 1×10^5 cpm), 1 μM ATP (Sigma), 1 mM DTT (Sigma), 2 mM MgCl2 (Sigma), 2 mM MnCl2 (Sigma), 10 mM NaF (Sigma), 25 mM Hepes (Sigma) buffer, pH 7.6 and 20 μl enzyme solution and […] inhibitor in a final volume of 50 μl. After incubation at 25° C. for 30 min, 150 μl resin (Dowex anion-exchange resin AG1X8 200-400 mesh) in 900 mM formate, pH 3.0 was added to each well to stop the reaction. Resin was allowed to settle for one hour and 50 ul of supernatant was removed to a Micolite-2 flat bottom plate (Dynex). 150 μl of scintillation fluid (Microscint 40) (Packard) was added to each well. Incorporation of [γ-^33P] ATP was measured using a Top-Count NXT (Packard).
In the case of `CS(=O)(=O)c1ccc(-n2nc(C(N)=O)c3ccc4ccc(NC(=O)c5ccccc5Cl)cc4c32)cc1` [Example 37, 8-[(2-chlorobenzoyl)amino]-1-[4-(methylsulfonyl)phenyl]-1H-benzo[g]indazole-3-carboxamide], the IC50 is at most 1 µM.

Turning to `CS(=O)(=O)c1ccc(-n2nc(C(N)=O)c3ccc4ccc(NC(=O)c5cccnc5Cl)cc4c32)cc1` [Example 41, 8-{[(2-chloropyridin-3-yl)carbonyl]amino}-1-[4-(methylsulfonyl)phenyl]-1H-benzo[g]indazole-3-carboxamide], the IC50 is at most 1 µM.

Staying with this test, now noted: Table 3; read-out: IKK2 Resin IC 50.
Take `CS(=O)(=O)Nc1ccc2ccc3c(C(N)=O)nn(-c4ccc(F)cc4)c3c2c1` [Example 50, 1-(4-fluorophenyl)-8-[(methylsulfonyl)amino]-1H-benzo[g]indazole-3-carboxamide]: the IC50 was at most 1 µM.

The test is the same for the next values; noted with them: Table 4; values given as bins; read-out: IKK2 Resin IC 50.
In the case of `NC(=O)c1nn(-c2ccc3c(c2)OCO3)c2c1ccc1ccc(NC(=O)c3cccnc3Cl)cc12` [Example 55, 1-(1,3-benzodioxol-5-yl)-8-{[(2-chloropyridin-3-yl)carbonyl]amino}-1H-benzo[g]indazole-3-carboxamide], the IC50 was at most 1 µM.

The next test addresses T2, rhIKK1/IKK2 heterodimer (Homo sapiens, UniProt O14920+O15111).
T2 construct: made in house; host or cells: insect cells (baculovirus coinfection; SF9)
T2 sequence (O14920 1-756): T1 sequence (O14920 1-756)
T2 sequence (O15111 1-745): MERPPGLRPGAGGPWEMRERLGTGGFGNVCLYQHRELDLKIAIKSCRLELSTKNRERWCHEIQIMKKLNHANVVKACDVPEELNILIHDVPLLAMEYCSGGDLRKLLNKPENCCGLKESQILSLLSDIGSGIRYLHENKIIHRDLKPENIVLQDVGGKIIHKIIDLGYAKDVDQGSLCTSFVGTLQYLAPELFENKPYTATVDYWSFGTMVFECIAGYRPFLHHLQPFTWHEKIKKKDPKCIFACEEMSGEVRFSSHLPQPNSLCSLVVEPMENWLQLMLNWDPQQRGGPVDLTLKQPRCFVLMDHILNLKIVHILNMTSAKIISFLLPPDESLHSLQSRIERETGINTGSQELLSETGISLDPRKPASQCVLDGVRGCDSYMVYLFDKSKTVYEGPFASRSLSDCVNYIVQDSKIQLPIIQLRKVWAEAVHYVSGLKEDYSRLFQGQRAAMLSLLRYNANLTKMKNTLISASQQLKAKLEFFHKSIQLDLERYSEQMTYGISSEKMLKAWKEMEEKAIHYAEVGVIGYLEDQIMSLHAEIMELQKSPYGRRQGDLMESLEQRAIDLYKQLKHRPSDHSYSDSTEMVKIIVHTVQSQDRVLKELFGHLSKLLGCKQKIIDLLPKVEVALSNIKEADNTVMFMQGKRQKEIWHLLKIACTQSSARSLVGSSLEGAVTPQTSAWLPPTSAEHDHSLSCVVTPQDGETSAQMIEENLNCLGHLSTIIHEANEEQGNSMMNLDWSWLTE
Briefly: IKK Heterodimer Resin Enzyme Assay. The test is classed as biochemical. The conditions noted are these: Table 1; values given as bins; read-out: HetD (IKK heterodimer assay values expressed as IC50).
Excerpt: as §1, with “([…]).” for “(DYKDDDDKD).”
Isolation of rhIKK1/IKK2 Heterodimer
The heterodimer enzyme was produced by coinfection in a baculovirus system (FLAG IKK2/IKK1 His; MOI=0.1 and I=72 hrs). Infected cells were centrifuged and the cell pellet (10.0 g) was suspended in 50 ml of buffer A. The protein suspension was microfluidized and centrifuged at 100,000×g for 45 min. Imidazole was added to the supernatant to a final concentration of 10 mM. The protein was allowed to bind 25 ml of Ni-NTA resin by mixing for 2 hrs. The protein-resin slurry was poured into a 25 ml column and washed with 250 ml of buffer A containing 10 mM imidazole followed by 125 ml of buffer A containing 50 mM imidazole. Buffer A, containing 300 mM imidazole, was then used to elute the protein. A 75 ml pool was collected and NP-40 was added to a final concentration of 0.1%. […] The protein-resin slurry was then centrifuged for 5 min at 2,000 rpm. The supernatant was collected and the resin re-suspended in 100 ml of buffer C containing 0.1% NP-40. The resin was washed with 375 ml of buffer C containing 0.1% NP-40. The protein-resin was poured into a 25 ml column and the enzyme eluted using buffer B containing FLAG peptide. Enzyme fractions (100 ml) were collected and concentrated to 20 ml using an Amicon membrane with molecular weight cut-off of 30 kDa. Bovine serum albumin was added to the concentrated enzyme to final concentration of 0.1%. The enzyme was then aliquoted and stored at −80° C.
IKK Heterodimer Resin Enzyme Assay
Resin was allowed to settle for one hour and 50 ul of supernatant was removed to a Micolite-2 flat bottom plate (Dynex). 150 μl of scintillation fluid (Microscint 40) (Packard) was added to each well. Incorporation of [γ-^33P] ATP was measured using a Top-Count NXT (Packard).
Turning to `NC(=O)c1nn(-c2ccc(S(N)(=O)=O)cc2)c2c1ccc1ccc(NC(=O)c3cccnc3)cc12` [Example 13, 1-[4-(aminosulfonyl)phenyl]-8-[(pyridin-3-ylcarbonyl)amino]-1H-benzo[g]indazole-3-carboxamide], the IC50 is at most 1 µM. As to `NC(=O)c1nn(-c2ccc(S(N)(=O)=O)cc2)c2c1ccc1ccc(NS(=O)(=O)c3cc(Cl)c(Cl)cc3Cl)cc12` [Example 23, 1-[4-(aminosulfonyl)phenyl]-8-{[(2,4,5-trichlorophenyl)sulfonyl]amino}-1H-benzo[g]indazole-3-carboxamide], the IC50 lay within 1 to 10 µM. The same measure, in the same setting: next, `NC(=O)c1nn(-c2ccc(S(N)(=O)=O)cc2)c2c1ccc1ccc(NC(=O)c3ccccc3C(F)(F)F)cc12` [Example 26, 1-[4-(aminosulfonyl)phenyl]-8-{[2-(trifluoromethyl)benzoyl]amino}-1H-benzo[g]indazole-3-carboxamide]: at most 1 µM. Still for that read-out and setting: the value for `Cc1cccc(C(=O)Nc2ccc3ccc4c(C(N)=O)nn(-c5ccc(S(N)(=O)=O)cc5)c4c3c2)c1` [Example 11, 1-[4-(aminosulfonyl)phenyl]-8-[(3-methylbenzoyl)amino]-1H-benzo[g]indazole-3-carboxamide] was at most 1 µM; that for `NC(=O)c1nn(-c2ccc(S(N)(=O)=O)cc2)c2c1ccc1ccc(NC(=O)c3c(Cl)cccc3Cl)cc12` [Example 28, 1-[4-(aminosulfonyl)phenyl]-8-[(2,6-dichlorobenzoyl)amino]-1H-benzo[g]indazole-3-carboxamide] was at most 1 µM; that for `CC(=O)Nc1ccc2ccc3c(C(N)=O)nn(-c4ccc(S(N)(=O)=O)cc4)c3c2c1` [Example 20, 8-(acetylamino)-1-[4-(aminosulfonyl)phenyl]-1H-benzo[g]indazole-3-carboxamide] was at most 1 µM.

As for `NC(=O)c1nn(-c2ccc(S(N)(=O)=O)cc2)c2c1ccc1ccc(NS(=O)(=O)c3cccc(C(F)(F)F)c3)cc12` [Example 19, 1-[4-(aminosulfonyl)phenyl]-8-({[3-(trifluoromethyl)phenyl]sulfonyl}amino)-1H-benzo[g]indazole-3-carboxamide], the IC50 lay in the range of 10 to 100 µM. On to `NC(=O)c1nn(-c2ccc(S(N)(=O)=O)cc2)c2c1ccc1ccc(NS(=O)(=O)c3cccc(Br)c3)cc12` [Example 15, 1-[4-(aminosulfonyl)phenyl]-8-{[(3-bromophenyl)sulfonyl]amino}-1H-benzo[g]indazole-3-carboxamide], for which the IC50 lay in the range of 1 to 10 µM.
